# Where a name gives a salt, the structure may show the parent alone. Read-outs that look alike come from different tables or passages of the source.
# Tests used:
# Format in all cases: cell-based
# S. aureus ATCC 29213 = experiment: In vitro antibacterial evaluation, MIC by agar dilution, S. aureus ATCC 29213; details: Staphylococcus aureus, ATCC29213
# Protocol: (§1) The compounds of the invention were evaluated against several β-lactamresistant bacteria strains by determining the minimum inhibitory concentration (MIC, μg/ml) of each compound with respect to each strain. The MIC, the lowest concentration of antibiotic which inhibits growth of the test organism, was determined by the agar dilution method.
# (§2) To determine the MIC for bacterial isolates, the test compound was incorporated in a series of two-fold dilutions into liquified Mueller-Hinton agar. Upon solidification, a number of different bacterial strains were spot inoculated with a replicating device onto the agar surface. […] The procedures used in these studies have been standardized by the National Committee for Clinical Laboratory Standards (NCCLS), as per the NCCLS publication entitled METHODS FOR DILUTION ANTIMICROBIAL SUSCEPTIBILITY TESTS (1991), which is incorporated herein by reference.
# (§3) Aliquots of antimicrobial agents were prepared in phosphate buffered saline (PBS) at pH 7.2. Tween 20 or DMSO was used as a solubilizing vehicle as needed. Standard methods of vortexing, sonicating and gentle heat were used to facilitate solubilizing the test agent. Typically, the concentration of the stock solution was 10× that of the highest drug concentration tested. A 1.28 mg/mL stock solution was used with a subsequent highest working concentration of 128 μg/mL. Serial two-fold dilutions were done through ≤0.25 μg/mL. Each drug level was tested in duplicate. Two-fold drug dilutions were done in sterile 50 mL tubes with a final drug volume of 5 mL. Upon the addition of 45 mL of molten agar, a 10-fold dilution resulted. Two, 25 mL. plates were then poured into 15×150 mm square Petri plates with grids and allowed to harden.
# (§4) A control plate with a reference drug, either cefotaxime, vancomycin or imipenem, was used as the positive growth control. Stock concentrations of reference antibiotics were prepared and frozen at -80° C. Upon preparation, the control plates were sealed and stored in the refrigerator for up to 1 week prior to use; however, imipenem control plates had to be prepared just prior to use. All test plates were used within 24 hours of preparation.
# (§5) Satisfactory results were obtained where the inoculum contained about 10^4 colony forming units (cfu) ±0.5 logs. Starting with pure cultures of the test isolates on agar plates, a few isolated colonies were transferred to a tube of nutrient broth and allowed to grow 4-6 hours at 35°-36° C. to reach log-phase growth. Dropwise addition of the broth culture to PBS was done to match a 0.5 McFarland turbidity standard equal to 10^8 cfu/mL. This was further diluted ten-fold in PBS to reach a working inoculum concentration of 10^7 cfu/mL. When 1 μL of the working inoculum was applied to the agar surface a concentration of about 10^4 cfu per spot was obtained.
# (§6) Disposable sterile 1 μL loops were used to inoculate test plates, with each isolate in a designated grid on the agar plate. An alternate method of inoculation involved the use of a replica plater, a device with 48 steel pins allowing the simultaneous inoculation of multiple isolates. After the spots had dried, the plates were incubated at 35°-36° C. for 16-20 hours. Endpoints were assessed as the minimum inhibitory concentration (MIC) of antimicrobial agent.
# [1] = test system: S. aureus 76 (Meth^R)(lac^+); experiment: In vitro antibacterial evaluation, MIC by agar dilution, S. aureus 76; details: Staphylococcus aureus, read-out: MIC
# Protocol: as §1, §2, §3, §4, §5, §6
# [2] = test system: S. aureus Col8A (Meth^S)(lac^-); experiment: In vitro antibacterial evaluation, MIC by agar dilution, S. aureus Col8A; details: Staphylococcus aureus
# Protocol: as §1, §2, §3, §4, §5, §6
# The novel agents of this invention are notable for their enhanced activity against S. aureus Col and Enterococci (E. faecium and E. faecalis). The S. aureus Col strain is a high-level PBP2a producer, whereas S. aureus Col 8A, its isogenic partner, lacks PBP2a. […] Thus, the compounds of the present invention are effective against PBP2a-producing bacteria.
# S. haemolyticus (Meth^R) = experiment: In vitro antibacterial evaluation, MIC by agar dilution, S. haemolyticus; details: Staphylococcus haemolyticus, read-out: MIC
# Protocol: as §1, §2, §3, §4, §5, §6
# E. faecium ATCC 35667 = experiment: In vitro antibacterial evaluation, MIC by agar dilution, E. faecium ATCC 35667; details: Enterococcus faecium, ATCC35667, read-out: MIC
# Protocol: as §1, §2, §3, §4, §5, §6
# E. faecalis ATCC 29212 = experiment: In vitro antibacterial evaluation, MIC by agar dilution, E. faecalis ATCC 29212; details: Enterococcus faecalis, ATCC29212; E. faecalis ATCC 29212; read-out: MIC
# Protocol: as §1, §2, §3, §4, §5, §6
# E. coli ATCC 25922 = experiment: In vitro antibacterial evaluation, MIC by agar dilution, E. coli ATCC 25922; details: Escherichia coli, ATCC25922, read-out: MIC
# Protocol: as §1, §2, §3, §4, §5, §6
# P. aeruginosa ATCC 27853 = experiment: In vitro antibacterial evaluation, MIC by agar dilution, P. aeruginosa ATCC 27853; details: Pseudomonas aeruginosa, ATCC27853, read-out: MIC
# Protocol: as §1, §2, §3, §4, §5, §6
# [3] = S. aureus ATCC 29213, read-out: MIC
Structure (SMILES),MIC (S. aureus ATCC 29213; [3]) [µg/mL],MIC [1] [µg/mL],MIC [2] [µg/mL],MIC (S. haemolyticus (Meth^R)) [µg/mL],MIC (E. faecium ATCC 35667) [µg/mL],MIC (E. faecalis ATCC 29212) [µg/mL],MIC (E. coli ATCC 25922) [µg/mL],MIC (P. aeruginosa ATCC 27853) [µg/mL],MIC (S. aureus ATCC 29213) [µg/mL]
"N#Cc1ccccc1SC1=C(C(=O)O)N2C(=O)[C@@H](NC(=O)/C(=N\OC3CCCC3)c3csc(N)n3)[C@H]2SC1 [Cmpd 53, (7R)-7-[(Z)-2-(aminothiazol-4-yl)-2-(cyclopentyloxyimino)acetamido]-3-(2-cyanophenylthio)-3-cephem-4-carboxylic acid]",1,8,1,8,8,8,1,8,
"CC(=O)NC(=N)SCc1ccccc1SC1=C(C(=O)O)N2C(=O)[C@@H](NC(=O)Cc3ccccc3)[C@H]2SC1 [Cmpd 78, (7R)-7-[(Phenylacetyl)amino]-3-(2-N-acetylamidinothiomethylphenylthio)-3-cephem-4-carboxylic acid]",,16,0.25,> 32,4,4,> 32,> 32,0.25
"N=C(NC1CC1)SCc1ccccc1SC1=C(C(=O)O)N2C(=O)[C@@H](NC(=O)Cc3ccccc3)[C@H]2SC1 [Cmpd 79, (7R)-7-[(Phenylacetyl)amino]-3-(2-N-cyclopropylisothiouroniummethylphenylthio)-3-cephem-4-carboxylate, inner salt]",0.06,8,0.06,32,2,1,> 32,> 32,
"N=C(N)SCc1cccc(SC2=C(C(=O)O)N3C(=O)[C@@H](NC(=O)Cc4ccccc4)[C@H]3SC2)c1 [Cmpd 80, (7R)-7-[(Phenylacetyl)amino]-3-(3-isothiouroniummethylphenylthio)-3-cephem-4-carboxylate, inner salt]",< 0.06,8,< 0.06,8,2,1,16,> 32,
"Nc1nc(/C(=N/OC2CCCC2)C(=O)N[C@@H]2C(=O)N3C(C(=O)O)=C(Sc4cccnc4-c4ccccc4)CS[C@H]23)cs1 [Cmpd 86, (7R)-7-[(Z)-2-(aminothiazol-4-yl)-2-(cyclopentyloxyimino)acetamido]-3-(2-phenylpyridin-3-ylthio)-3-cephem-4-carboxylic acid]",1,16,1,16,2,4,2,32,
"NCc1ccccc1CC(=O)N[C@@H]1C(=O)N2C(C(=O)O)=C(Sc3ccnn3-c3ccccc3)CS[C@H]12 [Cmpd 96, (7R)-7-[((2-aminomethylphenyl)acetyl)amino]-3-(1-N-phenylpyrazol-5-ylthio)-3-cephem-4-carboxylic acid]",0.25,16,0.5,16,4,1,> 32,> 32,
"Nc1nc(/C(=N/OCCF)C(=O)N[C@@H]2C(=O)N3C(C(=O)O)=C(Sc4ccnn4-c4ccccc4)CS[C@H]23)c(Cl)s1 [Cmpd 98, (7R)-7-[(Z)-2-(2-amino-5-chlorothiazol-4-yl)-2-(2-fluoroethyloxyimino)acetamido]-3-(1-N-phenylpyrazol-5-ylthio)-3-cephem-4-carboxylic acid]",0.5,8,,8,4,1,8,16,
"N=C(N)SCc1ccccc1SC1=C(C(=O)O)N2C(=O)[C@@H](NC(=O)Cc3ccc(O)cc3)[C@H]2SC1 [Cmpd 99, (7R)-7-[((4-Hydroxyphenyl)acetyl)amino]-3-(2-isothiouroniummethylphenylthio)-3-cephem-4-carboxylic acid, inner salt]",0.125,16,,16,1,1,> 32,> 32,
"N=C(N)SCCc1ccccc1SC1=C(C(=O)O)N2C(=O)[C@@H](NC(=O)Cc3ccccc3)[C@H]2SC1 [Cmpd 100, (7R)-7-[(Phenylacetyl)amino]-3-(2-(2-isothiouronium)ethylphenylthio)-3-cephem-4-carboxylate, inner salt]",< 0.06,8,,16,4,1,> 32,> 32,
"O=C(Cc1ccccc1)N[C@@H]1C(=O)N2C(C(=O)O)=C(Sc3ccnn3-c3ccccn3)CS[C@H]12 [Cmpd 105, (7R)-7-[(Phenylacetyl)amino]-3-(1-N-(pyridin-2-yl)pyrazol-5-ylthio)-3-cephem-4-carboxylic acid]",,16,0.25,32,2,1,> 32,> 32,0.25
"O=C(COc1ccccc1)N[C@@H]1C(=O)N2C(C(=O)O)=C(Sc3ccnn3-c3ccccc3)CS[C@H]12 [Cmpd 112, (7R)-7-[(phenyloxyacetyl)amino]-3-(1-N-phenylpyrazol-5-ylthio) -3-cephem-4-carboxylic acid]",,16,,32,4,4,> 32,> 32,
"CSCC(=O)N[C@@H]1C(=O)N2C(C(=O)O)=C(Sc3ccccc3CSC(=N)NC(=N)N)CS[C@H]12 [Cmpd 126, (7R)-7-[(methylthioacetyl)amino]-3-(2-(N-amidino)isothiouroniummethylphenylthio)-3-cephem-4-carboxylate, inner salt]",,16,0.125,,2,1,> 32,> 32,0.125
"N=C(N)NCc1ccccc1SC1=C(C(=O)O)N2C(=O)[C@@H](NC(=O)Cc3ccccc3)[C@H]2SC1 [Cmpd 128, (7R)-7-[(Phenylacetyl)amino]-3-(2-guanidiniummethylphenylthio)-3-cephem-4-carboxylate, inner salt]",≤ 0.06,16,≤ 0.06,,2,2,> 32,> 32,
"N=C(N)SCc1ccccc1SC1=C(C(=O)O)N2C(=O)[C@@H](NC(=O)/C(=N\O)c3csc(N)n3)[C@H]2SC1 [Cmpd 129, (7R)-7-[(Z)-2-(Aminothiazol-4-yl)-2-(hydroxyimino)acetamido]-3-(2-isothiouroniummethylphenylthio)-3-cephem-4-carboxylate, inner salt]",≤ 0.06,8,≤ 0.06,16,,0.25,2,> 32,
"N=C(N)SCc1ccccc1SC1=C(C(=O)O)N2C(=O)[C@@H](NC(=O)/C(=N\O)c3ccccc3)[C@H]2SC1 [Cmpd 136, (7R)-7-[(Z)-2-(Phenyl)-2-(hydroxyimino)acetamido]-3-(2-isothiouroniummethylphenylthio)-3-cephem-4-carboxylate, inner salt]",0.125,4,,4,1,0.5,> 32,> 32,
